From paper PMC6278366, “Synthesis and Evaluation of Anticancer Activities of Novel C-28 Guanidine-Functionalized Triterpene Acid Derivatives” (Molecules, 2018)
Counter-ions that a name gives are not always drawn.

Tested on: Jurkat cells
Experiment: Cell cycle analysis (propidium iodide staining, flow cytometry)
Format: cell-based, human
Settings: 48 h, at IC50 concentration (59 μM Dihydro BA; 4 μM 15, 15c, 18c; 8 μM 20c); for cells in G2/M phase: control 14.5%
Description: Cell cycle was analyzed using the method of propidium iodide staining. Briefly, cells were plated in 24-well round bottom plates at density 10 × 10^5 cells per well, centrifuged at 450× g for 5 min, and fixed with ice-cold 70% ethanol for 24 h at 0 °C. Cells were then washed with PBS and incubated with 250 μL of Guava Cell Cycle Reagent (Millipore, Burlington, MA, USA) for 30 min at room temperature in the dark. Samples were analyzed on NovoCyte^TM 2000 FlowCytometry System (ACEA, San Diego, CA, USA).
Figure 3 Cell cycle analysis in Jurkat cells. […] The cells were trypsinized, harvested and washed three times with ice-PBS for PI-stained DNA content detected by flow cytometry. The experiments were performed three times, and the results of the representative experiments are shown. The first cytogram represents an untreated cell sample (A); after incubation with dihydrobetulinic acid for 48 h (B); after incubation with compound 15 for 24 h (C) and for 48 h (D); after incubation with compound 15c for 24 h (E) and for 48 h (F); after incubation with compound 18c for 24 h (G) and for 48 h (H); after incubation with compound 20c for 24 h (I) and for 48 h (J). […]

Row | Compound | cells in G2/M phase | cells in S phase (control 38.3%)
1 | CC(=O)O[C@H]1CC[C@@]2(C)C(CC[C@]3(C)C2CCC2C4C(C(C)C)CC[C@]4(C(=O)OCC(CO)(CO)NC(=N)N)CC[C@]23C)C1(C)C (stereo partly drawn) [Compound 15c, 3β-[2-Guanidine-3-hydroxy-2-(hydroxymethyl)propyl]-3-O-acetyl-lupane-28-oate hydrochloride] | 1.5% | –
2 | CC(=O)O[C@H]1CC[C@@]2(C)C(CC[C@]3(C)C2CCC2C4C(C(C)C)CC[C@]4(C(=O)OCC(N)(CO)CO)CC[C@]23C)C1(C)C (stereo partly drawn) [Compound 15, 3β-[2-Amino-3-hydroxy-2-(hydroxymethyl)propyl]-3-O-acetyl-lupane-28-oate] | 7.0% | 72.7%
